# Measurements: patent US6465395B2, “Substituted methylene pyrazolinones and the herbicidal use thereof” (BASF Aktiengesellschaft, priority 2000, dated 2002)
# Legend:
# Type in all cases: in vivo
# [1] = system: IPOSS, Morningglory spp., Ipomoea spp.; assay: Preemergence herbicidal evaluation
# Source text: (§1) The preemergence herbicidal activity of the test compounds of the present invention is exemplified by the following tests in which the seeds of a variety of monocotyledonous and dicotyledonous plants are separately mixed with potting soil and planted on top of approximately one inch of soil in separate pint cups. After planting, the cups are sprayed with the selected aqueous acetone solution containing test compound in sufficient quantity to provide the equivalent of about 0.0125 kg/ha to 0.800 kg/ha of test compound per cup. The treated cups are then placed on greenhouse benches, watered and cared for in accordance with conventional greenhouse procedures. Approximately two to four weeks after treatment, the tests are terminated and each cup is examined and rated according to the rating system provided in Example 12. When more than one test is performed for a given compound, the data are averaged.
# [2] = system: ABUTH, Velvetleaf, Abutilon theophrasti, Medic.; assay: Preemergence herbicidal evaluation
# Source text: as §1
# [3] = system: CHEAL, Lambsquarters, Chenopodium album, L.; assay: Preemergence herbicidal evaluation
# Source text: as §1
# [4] = system: PANDI, Panicum, Fall, Panicum dichotomiflorum, Michx; assay: Preemergence herbicidal evaluation
# Source text: as §1
# [5] = system: AMBEL, Ragweed, Ambrosia artemisifolia, L.; assay: Preemergence herbicidal evaluation
# Source text: as §1
# [6] = system: ZEAMX, Corn, Field, Zea mays, L.; assay: Preemergence herbicidal evaluation; conditions: crop (corn)
# Source text: as §1
# [7] = system: SETVI, Foxtail, Green, Setaria viridis, (L.) Beau; assay: Preemergence herbicidal evaluation
# Source text: as §1
# [8] = system: ORYSAT, Rice, Tebonnet, Oryza sativa, (L.) Tebonnet; assay: Preemergence herbicidal evaluation; conditions: crop (rice)
# Source text: as §1
# [9] = system: GOSHI, Cotton, Gossypium hirsutum, L.; assay: Preemergence herbicidal evaluation; conditions: crop (cotton)
# Source text: as §1
# [10] = system: ECHCG, Barnyardgrass, Echinochloa crus-galli, (L.) Beau; assay: Preemergence herbicidal evaluation
# Source text: as §1
# [11] = system: GOSHI, Cotton, Gossypium hirsutum, L.; assay: Postemergence herbicidal evaluation; conditions: crop (cotton)
# Description: (§2) The postemergence herbicidal activity of the compounds of the present invention is evaluated by the following tests. Seedling plants are grown in jiffy flats for about two weeks. The test compounds are dispersed in 80/20 (v/v) acetone/water mixtures containing 1.0% SUN-IT®II, a methylated seed oil, in sufficient quantities to provide the equivalent of about 0.006 kg/ha to 0.800 kg/ha of active compound when applied to the plants through a spray nozzle operating at 40 psi for a predetermined time. After spraying, the plants are placed on greenhouse benches and are cared for in accordance with conventional greenhouse procedures. Approximately two to three weeks after treatment, the seedling plants are examined and rated according to the rating system set forth below. Where more than one test is involved for a given compound, the data are averaged.
# [12] = system: IPOSS, Morningglory spp., Ipomoea spp.; assay: Postemergence herbicidal evaluation
# Description: as §2
# [13] = system: ABUTH, Velvetleaf, Abutilon theophrasti, Medic.; assay: Postemergence herbicidal evaluation
# Description: as §2
# [14] = system: CHEAL, Lambsquarters, Chenopodium album, L.; assay: Postemergence herbicidal evaluation
# Description: as §2
# [15] = system: PANDI, Panicum, Fall, Panicum dichotomiflorum, Michx; assay: Postemergence herbicidal evaluation
# Description: as §2
# [16] = system: AMBEL, Ragweed, Ambrosia artemisifolia, L.; assay: Postemergence herbicidal evaluation
# Description: as §2
# [17] = system: ZEAMX, Corn, Field, Zea mays, L.; assay: Postemergence herbicidal evaluation; conditions: crop (corn)
# Description: as §2
# [18] = system: SETVI, Foxtail, Green, Setaria viridis, (L.) Beau; assay: Postemergence herbicidal evaluation
# Description: as §2
# [19] = system: ORYSAT, Rice, Tebonnet, Oryza sativa, (L.) Tebonnet; assay: Postemergence herbicidal evaluation; conditions: crop (rice)
# Description: as §2
# [20] = system: ECHCG, Barnyardgrass, Echinochloa crus-galli, (L.) Beau; assay: Postemergence herbicidal evaluation
# Description: as §2
smiles,measurement,setting,value
"CCCS/C(=C1/C=NN(CC)C1=O)c1ccc2c(c1C)/C(=N/OC)CCS2(=O)=O [Example 8b, 1-Ethyl-4-[(Z)-(5-methyl-4-oxothiochroman-6-yl)(propythio)methylene]-2-pyrazolin-5-one 4′-[(E)-O-methyloxime], S,S-dioxide]",Herbicide rating IPOSS,[1]; 0.2000 kg/ha,0.0
same,Herbicide rating IPOSS,[1]; 0.4000 kg/ha,0.0
same,Herbicide rating IPOSS,[1]; 0.8000 kg/ha,0.0
same,Herbicide rating ABUTH,[2]; 0.2000 kg/ha,0.0
same,Herbicide rating ABUTH,[2]; 0.4000 kg/ha,0.0
same,Herbicide rating ABUTH,[2]; 0.8000 kg/ha,9.0
same,Herbicide rating CHEAL,[3]; 0.2000 kg/ha,6.0
same,Herbicide rating CHEAL,[3]; 0.4000 kg/ha,7.0
same,Herbicide rating CHEAL,[3]; 0.8000 kg/ha,9.0
same,Herbicide rating PANDI,[4]; 0.2000 kg/ha,2.0
same,Herbicide rating PANDI,[4]; 0.4000 kg/ha,7.0
same,Herbicide rating PANDI,[4]; 0.8000 kg/ha,7.0
same,Herbicide rating AMBEL,[5]; 0.2000 kg/ha,0.0
same,Herbicide rating AMBEL,[5]; 0.4000 kg/ha,3.0
same,Herbicide rating AMBEL,[5]; 0.8000 kg/ha,6.0
same,Herbicide rating ZEAMX,[6]; 0.2000 kg/ha,0.0
same,Herbicide rating ZEAMX,[6]; 0.4000 kg/ha,0.0
same,Herbicide rating ZEAMX,[6]; 0.8000 kg/ha,0.0
same,Herbicide rating SETVI,[7]; 0.2000 kg/ha,3.0
same,Herbicide rating SETVI,[7]; 0.4000 kg/ha,0.0
same,Herbicide rating SETVI,[7]; 0.8000 kg/ha,3.0
same,Herbicide rating ORYSAT,[8]; 0.2000 kg/ha,0.0
same,Herbicide rating ORYSAT,[8]; 0.4000 kg/ha,0.0
same,Herbicide rating ORYSAT,[8]; 0.8000 kg/ha,0.0
same,Herbicide rating GOSHI,[9]; 0.2000 kg/ha,0.0
same,Herbicide rating GOSHI,[9]; 0.4000 kg/ha,0.0
same,Herbicide rating GOSHI,[9]; 0.8000 kg/ha,0.0
same,Herbicide rating ECHCG,[10]; 0.2000 kg/ha,0.0
same,Herbicide rating ECHCG,[10]; 0.4000 kg/ha,0.0
same,Herbicide rating ECHCG,[10]; 0.8000 kg/ha,0.0
same,Herbicide rating GOSHI,[11]; 0.0500 kg/ha,0.0
same,Herbicide rating GOSHI,[11]; 0.1000 kg/ha,0.0
same,Herbicide rating GOSHI,[11]; 0.2000 kg/ha,0.0
same,Herbicide rating GOSHI,[11]; 0.4000 kg/ha,4.0
same,Herbicide rating GOSHI,[11]; 0.8000 kg/ha,4.5
same,Herbicide rating IPOSS,[12]; 0.0500 kg/ha,0.0
same,Herbicide rating IPOSS,[12]; 0.1000 kg/ha,0.0
same,Herbicide rating IPOSS,[12]; 0.2000 kg/ha,0.0
same,Herbicide rating IPOSS,[12]; 0.4000 kg/ha,0.0
same,Herbicide rating IPOSS,[12]; 0.8000 kg/ha,0.0
same,Herbicide rating ABUTH,[13]; 0.0500 kg/ha,1.0
same,Herbicide rating ABUTH,[13]; 0.1000 kg/ha,0.0
same,Herbicide rating ABUTH,[13]; 0.2000 kg/ha,5.0
same,Herbicide rating ABUTH,[13]; 0.4000 kg/ha,5.0
same,Herbicide rating ABUTH,[13]; 0.8000 kg/ha,6.0
same,Herbicide rating CHEAL,[14]; 0.0500 kg/ha,7.0
same,Herbicide rating CHEAL,[14]; 0.1000 kg/ha,8.0
same,Herbicide rating CHEAL,[14]; 0.2000 kg/ha,8.0
same,Herbicide rating CHEAL,[14]; 0.4000 kg/ha,9.0
same,Herbicide rating CHEAL,[14]; 0.8000 kg/ha,9.0
same,Herbicide rating PANDI,[15]; 0.0500 kg/ha,2.0
same,Herbicide rating PANDI,[15]; 0.1000 kg/ha,6.0
same,Herbicide rating PANDI,[15]; 0.2000 kg/ha,7.0
same,Herbicide rating PANDI,[15]; 0.4000 kg/ha,7.0
same,Herbicide rating PANDI,[15]; 0.8000 kg/ha,6.0
same,Herbicide rating AMBEL,[16]; 0.0500 kg/ha,0.0
same,Herbicide rating AMBEL,[16]; 0.1000 kg/ha,5.0
same,Herbicide rating AMBEL,[16]; 0.2000 kg/ha,7.0
same,Herbicide rating AMBEL,[16]; 0.4000 kg/ha,7.0
same,Herbicide rating AMBEL,[16]; 0.8000 kg/ha,7.0
same,Herbicide rating ZEAMX,[17]; 0.0500 kg/ha,0.0
same,Herbicide rating ZEAMX,[17]; 0.1000 kg/ha,0.0
same,Herbicide rating ZEAMX,[17]; 0.2000 kg/ha,0.0
same,Herbicide rating ZEAMX,[17]; 0.4000 kg/ha,0.0
same,Herbicide rating ZEAMX,[17]; 0.8000 kg/ha,0.0
same,Herbicide rating SETVI,[18]; 0.0500 kg/ha,3.5
same,Herbicide rating SETVI,[18]; 0.1000 kg/ha,3.5
same,Herbicide rating SETVI,[18]; 0.2000 kg/ha,4.0
same,Herbicide rating SETVI,[18]; 0.4000 kg/ha,9.0
same,Herbicide rating SETVI,[18]; 0.8000 kg/ha,9.0
same,Herbicide rating ORYSAT,[19]; 0.0500 kg/ha,1.0
same,Herbicide rating ORYSAT,[19]; 0.1000 kg/ha,1.7
same,Herbicide rating ORYSAT,[19]; 0.2000 kg/ha,3.5
same,Herbicide rating ORYSAT,[19]; 0.4000 kg/ha,1.5
same,Herbicide rating ORYSAT,[19]; 0.8000 kg/ha,3.5
same,Herbicide rating ECHCG,[20]; 0.0500 kg/ha,6.5
same,Herbicide rating ECHCG,[20]; 0.1000 kg/ha,8.0
same,Herbicide rating ECHCG,[20]; 0.2000 kg/ha,8.0
same,Herbicide rating ECHCG,[20]; 0.4000 kg/ha,9.0
same,Herbicide rating ECHCG,[20]; 0.8000 kg/ha,9.0
